Our source for the IC50 values is patent US10273223B2, “Substituted 6,5-fused bicyclic heteroaryl compounds” (Epizyme, Inc., priority 2011, dated 2019).

Chain of EZH2 (PRC2 enzyme complex: EZH2, EED, Suz12, RbAp48) (Homo sapiens (Human), UniProt Q15910) (Q15910 other isoform, or with tags, fused parts or gaps): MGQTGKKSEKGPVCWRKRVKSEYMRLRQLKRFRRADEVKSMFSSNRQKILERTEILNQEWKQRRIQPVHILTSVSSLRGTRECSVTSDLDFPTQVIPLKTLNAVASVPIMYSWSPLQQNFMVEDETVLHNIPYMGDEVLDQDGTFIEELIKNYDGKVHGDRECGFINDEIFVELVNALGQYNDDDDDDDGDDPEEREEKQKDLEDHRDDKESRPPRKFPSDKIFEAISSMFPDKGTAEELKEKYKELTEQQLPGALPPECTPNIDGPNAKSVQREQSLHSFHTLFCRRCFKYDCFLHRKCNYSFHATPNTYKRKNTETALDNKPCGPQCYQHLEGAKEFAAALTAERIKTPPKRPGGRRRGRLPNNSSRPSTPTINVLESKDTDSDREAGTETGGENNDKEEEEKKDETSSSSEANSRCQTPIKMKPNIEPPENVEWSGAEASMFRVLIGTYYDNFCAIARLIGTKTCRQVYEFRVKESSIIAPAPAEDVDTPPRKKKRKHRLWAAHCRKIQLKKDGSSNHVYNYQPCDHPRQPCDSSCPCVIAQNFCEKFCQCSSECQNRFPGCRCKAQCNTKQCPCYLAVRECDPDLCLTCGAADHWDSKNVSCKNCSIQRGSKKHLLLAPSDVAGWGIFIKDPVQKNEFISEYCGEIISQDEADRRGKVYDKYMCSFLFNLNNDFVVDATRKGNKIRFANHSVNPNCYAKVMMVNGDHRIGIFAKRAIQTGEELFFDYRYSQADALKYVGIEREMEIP
Chain of EZH2 (PRC2 enzyme complex: EZH2, EED, Suz12, RbAp48) (Homo sapiens (Human), UniProt Q15910) (O75530 whole entry partner): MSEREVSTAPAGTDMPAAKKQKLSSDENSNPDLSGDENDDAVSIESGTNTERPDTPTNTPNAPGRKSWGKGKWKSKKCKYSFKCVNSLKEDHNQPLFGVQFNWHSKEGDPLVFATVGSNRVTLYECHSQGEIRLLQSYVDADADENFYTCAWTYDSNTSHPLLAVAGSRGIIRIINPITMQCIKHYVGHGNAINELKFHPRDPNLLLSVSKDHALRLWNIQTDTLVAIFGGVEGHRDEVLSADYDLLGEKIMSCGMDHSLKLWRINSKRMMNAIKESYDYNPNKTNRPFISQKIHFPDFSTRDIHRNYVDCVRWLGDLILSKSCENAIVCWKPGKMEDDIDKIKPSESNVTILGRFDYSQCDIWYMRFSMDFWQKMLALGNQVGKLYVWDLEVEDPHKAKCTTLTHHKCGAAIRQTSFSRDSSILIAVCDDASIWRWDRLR
Chain of EZH2 (PRC2 enzyme complex: EZH2, EED, Suz12, RbAp48) (Homo sapiens (Human), UniProt Q15910) (Q15022 whole entry partner): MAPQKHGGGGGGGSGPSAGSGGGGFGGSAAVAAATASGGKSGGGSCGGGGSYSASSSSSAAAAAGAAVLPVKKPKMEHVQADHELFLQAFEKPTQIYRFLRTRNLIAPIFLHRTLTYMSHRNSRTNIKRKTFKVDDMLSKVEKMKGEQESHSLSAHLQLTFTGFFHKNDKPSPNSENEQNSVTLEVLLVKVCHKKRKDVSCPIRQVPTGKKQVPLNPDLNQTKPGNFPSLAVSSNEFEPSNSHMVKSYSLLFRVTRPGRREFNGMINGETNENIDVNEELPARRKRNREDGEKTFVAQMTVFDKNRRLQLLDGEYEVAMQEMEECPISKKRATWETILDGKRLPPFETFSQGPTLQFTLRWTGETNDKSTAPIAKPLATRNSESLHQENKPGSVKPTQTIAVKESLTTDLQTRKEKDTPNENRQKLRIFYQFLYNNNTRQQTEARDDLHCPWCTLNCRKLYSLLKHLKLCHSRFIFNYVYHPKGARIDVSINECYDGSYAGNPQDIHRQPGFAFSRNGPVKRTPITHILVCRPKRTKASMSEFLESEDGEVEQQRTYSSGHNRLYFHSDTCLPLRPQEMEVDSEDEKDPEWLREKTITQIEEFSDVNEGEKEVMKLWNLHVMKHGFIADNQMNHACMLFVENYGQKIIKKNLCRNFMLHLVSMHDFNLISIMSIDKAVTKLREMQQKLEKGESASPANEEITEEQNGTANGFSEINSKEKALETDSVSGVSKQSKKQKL
Chain of EZH2 (PRC2 enzyme complex: EZH2, EED, Suz12, RbAp48) (Homo sapiens (Human), UniProt Q15910) (Q09028 whole entry partner): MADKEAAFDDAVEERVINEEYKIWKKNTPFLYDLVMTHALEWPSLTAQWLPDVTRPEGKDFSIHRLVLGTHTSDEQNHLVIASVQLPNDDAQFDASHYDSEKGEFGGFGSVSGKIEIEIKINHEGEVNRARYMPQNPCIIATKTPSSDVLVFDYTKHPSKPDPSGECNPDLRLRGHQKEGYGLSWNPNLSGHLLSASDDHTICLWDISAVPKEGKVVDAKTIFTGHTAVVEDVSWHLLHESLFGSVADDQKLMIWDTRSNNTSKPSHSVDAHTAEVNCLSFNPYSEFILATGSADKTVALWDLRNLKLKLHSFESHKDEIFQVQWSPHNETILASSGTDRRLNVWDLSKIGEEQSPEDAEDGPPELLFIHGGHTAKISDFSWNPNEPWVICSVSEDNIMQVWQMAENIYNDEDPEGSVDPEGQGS

The first experiment has as its target EZH2 (PRC2 enzyme complex: EZH2, EED, Suz12, RbAp48) (Homo sapiens (Human), UniProt Q15910). Nature of the experiment: PRC2 enzyme assay on peptide substrates (3H-SAM Flashplate). The following applies: read-out: EZH2 IC50; PRC2 enzyme assays on peptide substrates; 4 nM enzyme, 30 min preincubation at 25° C.; EZH2 form (wild-type or Y641 mutant) not stated in tables.
Regarding `Cc1cc(C)c(CNC(=O)c2cc(C3CC(C)(C)NC(C)(C)C3)nc3c2cnn3C2CCCC2)c(=O)[nH]1` [Compound B-4, 1-cyclopentyl-N-((4,6-dimethyl-2-oxo-1,2-dihydropyridin-3-yl)methyl)-6-(2,2,6,6-tetramethylpiperidin-4-yl)-1H-pyrazolo[3,4-b]pyridine-4-carboxamide], the 50% inhibitory concentration (IC50) was under 0.3 µM.

Consider `CC1=CC(C)=C(CNC(=O)c2cc(C3=CCN(C(=O)C4CN(C)C4)CC3)cc3c2cnn3C2CCCC2)C(C)N1` [Compound D-50], for which the IC50 is under 0.3 µM.

Regarding `CNCCN1CCC(c2cc(C(=O)NCC3=C(C)C=C(C)NC3C)c3cnn(C4CCCC4)c3c2)CC1` [Compound D-51], the IC50 is under 0.3 µM.

In the next experiment the target is EZH2 (PRC2 enzyme complex: EZH2, EED, Suz12, RbAp48) (Homo sapiens (Human), UniProt O75530+Q09028+Q15022+Q15910). The description is as above.
Chain of EZH2 (PRC2 enzyme complex: EZH2, EED, Suz12, RbAp48) (Homo sapiens (Human), UniProt O75530+Q09028+Q15022+Q15910) (Q15910 other isoform, or with tags, fused parts or gaps): as the sequence (Q15910 other isoform, or with tags, fused parts or gaps) above
Chain of EZH2 (PRC2 enzyme complex: EZH2, EED, Suz12, RbAp48) (Homo sapiens (Human), UniProt O75530+Q09028+Q15022+Q15910) (O75530 whole entry partner): as the sequence (O75530 whole entry partner) above
Chain of EZH2 (PRC2 enzyme complex: EZH2, EED, Suz12, RbAp48) (Homo sapiens (Human), UniProt O75530+Q09028+Q15022+Q15910) (Q15022 whole entry partner): as the sequence (Q15022 whole entry partner) above
Chain of EZH2 (PRC2 enzyme complex: EZH2, EED, Suz12, RbAp48) (Homo sapiens (Human), UniProt O75530+Q09028+Q15022+Q15910) (Q09028 whole entry partner): as the sequence (Q09028 whole entry partner) above
Conditions: not given
Consider `Cc1cc(C)c(CNC(=O)c2cc(-c3ccccc3CN)nc3c2cnn3C(C)C)c(=O)[nH]1` [Compound A-68], for which the half-inhibitory concentration (IC50) is 3 to 10 µM.

`Cc1cc(C)c(CNC(=O)c2cc(-c3cccc(CNCCCN(C)C)c3)nc3c2cnn3C(C)C)c(=O)[nH]1` [Compound A-125] gave an IC50 of 1 to 3 µM.

`Cc1cc(C)c(CNC(=O)c2cc(-c3cccc(CN(C)CCN4CCCC4)c3)nc3c2cnn3C(C)C)c(=O)[nH]1` [Compound A-41] came in with a half-maximal inhibitory concentration (IC50) of 0.3 to 1 µM.

Compound `Cc1cc[nH]c(=O)c1CNC(=O)c1cc(-c2ccc3c(c2)OCCO3)nc2c1cnn2C(C)(C)C` [Compound A-77] came in with a half-maximal inhibitory concentration (IC50) of 10 to 50 µM.

Turning to `Cc1cc(C(C)C)c(CNC(=O)c2cc(C3=CC(C)(C)NC(C)(C)C3)nc3c2cnn3C(C)C)c(=O)[nH]1` [Compound B-148], the IC50 was 10 to 50 µM.

Turning to `Cc1cc(C)c(CNC(=O)c2cc(C(C)C)nc3c2cnn3C(C)C)c(=O)[nH]1` [Compound B-109], the half-maximal inhibitory concentration (IC50) lay within 1 to 3 µM.

`Cc1cc(C)c(CNC(=O)c2c(Cl)c(-c3ccc4c(c3)OCCO4)nc3c2cnn3C(C)C)c(=O)[nH]1` [Compound A-47] registered a concentration for half-maximal inhibition (IC50) of 0.3 to 1 µM.

`CNCCN(C)Cc1cccc(-c2cc(C(=O)NCc3c(C)cc(C)[nH]c3=O)c3cnn(C(C)C)c3n2)c1` [Compound A-58] had an IC50 of 1 to 3 µM.

Regarding `Cc1cc(C)n(C)c(=O)c1CNC(=O)c1cc(-c2cccc(CN(C)CCN(C)C)c2)nc2c1cnn2C(C)C` [Compound A-74], the IC50 lay in the range of 10 to 50 µM.
